# From patent US10525073B2, “Method for improving kidney and/or heart function in patients with kidney disease” (MacKay Memorial Hospital, priority 2015, dated 2020)
# Assays:
# [1] = test system: IL-6, TGF-β, TIMP1 and COL-1-A1 in kidney tissue of CKD rats; test: Quantitative RT-PCR of inflammatory genes in kidney tissue of CKD rats; type: in vivo, Sprague Dawley rats
# Description: (§1) SD rats (about 10 weeks old) scheduled to undergo 5/6 nephrectomy or sham surgery were anesthetized by Zoletil 50/Xylazine (6 mg/1.3 mg/Kg, i.p.). Then, the left kidney was exposed, and the upper and lower poles were tied with a suture line, followed by right nephrectomy. The peritoneum and skin were then sutured, and the animals were returned to their individual cages. […] Two weeks after sham or 5/6 nephrectomy surgery, the animals were subjected to a 24-hour urine collection and non-invasive tail blood pressure measurement every 4 weeks. Four weeks after the surgery, rats underwent 5/6 nephrectomy or shame surgery were randomly assigned into two groups, i.e., the control and the telbivudine groups, in which the control group received saline treatment, and rats in the telbivudine group received telbivudine (10 mg/mL/Kg) treatment for 8 or 12 weeks. Animals were then sacrificed, and kidney and heart biopsy samples were obtained.
# Total RNA was extracted from fresh frozen renal and heart tissues using the Trizol Reagent (Life Technologies), according to the manufacturer protocol. Briefly, renal cortex or heart tissue (150 mg) was homogenized with 1 ml Trizol, and RNA-containing aqueous phase was obtained by centrifugation. Following the precipitation of RNA by centrifugation with 0.5 volume isopropanol and purification with 75% ethanol, the extracted total RNA was dissolved in 80 μL nuclease-free deionized distilled water and stored at −20° C. The concentration and purity of RNA were determined by Nanodrop Spectrophotometer (Thermo Scientific). First-strand cDNAs were synthesized from template RNA (1 μg) using Transcriptor First Strand cDNA Synthesis Kit (Roche), according to the manufacturer's protocol. Real-time PCR was performed using 2 μL template in a 20-μL reaction containing 1 μM of each primer and 10 μLLightCyclerFastStartUniversal SYBR Green Master (ROX) (Roche). […]
# (§2) 5/6 nephrectomy is a procedure in which one kidney of a test animal is removed and 2/3 of the remaining kidney is ablated, thereby mimics the progressive renal failure after loss of renal mass in humans. […] Blood and urine samples were respectively collected on designated days and analyzed for the levels of blood urine nitrogen (BUN), serum creatine (CR), and hepatic enzymes (i.e., alanine aminotransferase (ALT) and aspartate aminotransferase (AST)). Heart function was determined by monitoring the changes in diastolic parameter—Tissue Velocity Imaging (TVI_V), E/A ratio, and the strain in cardia muscle (C_strain), left ventrical mass (LVMASS). […]
# [2] = test system: IL-6 and COL-1-A1 in heart tissue of CKD rats; test: Quantitative RT-PCR of IL-6 and COL-1-A1 in heart tissue of CKD rats; type: in vivo, Sprague Dawley rats
# Description: (§3) SD rats (about 10 weeks old) scheduled to undergo 5/6 nephrectomy or sham surgery were anesthetized by Zoletil 50/Xylazine (6 mg/1.3 mg/Kg, i.p.). Then, the left kidney was exposed, and the upper and lower poles were tied with a suture line, followed by right nephrectomy. The peritoneum and skin were then sutured, and the animals were returned to their individual cages. […] Two weeks after sham or 5/6 nephrectomy surgery, the animals were subjected to a 24-hour urine collection and non-invasive tail blood pressure measurement every 4 weeks. […]
# Total RNA was extracted from fresh frozen renal and heart tissues using the Trizol Reagent (Life Technologies), according to the manufacturer protocol. […] The concentration and purity of RNA were determined by Nanodrop Spectrophotometer (Thermo Scientific). […]
# as §2, with “(AST)).” for “(AST)). Heart function was determined by monitoring the changes in diastolic parameter—Tissue Velocity Imaging (TVI_V), E/A ratio, and the strain in cardia muscle (C_strain), left ventrical mass (LVMASS).”
# CKD rats [3] = test system: CKD rats; parameters: species or system Sprague Dawley rats; details: rat, in vivo
# Excerpt: (§4) 5/6 nephrectomy is a procedure in which one kidney of a test animal is removed and 2/3 of the remaining kidney is ablated, thereby mimics the progressive renal failure after loss of renal mass in humans. Briefly, approximately 50% of the remaining kidney of the rat was removed by polar excision 1-2 weeks after uni-nephrectomy. Then, the animals were randomly assigned to two groups, the telbivudine group and the control group. Rats in the telbivudine group were orally fed with telbivudine (at a dosage of 100 mg/Kg) for 4, 8 or 12 weeks, while the animals in the control group were given just the water. Blood and urine samples were respectively collected on designated days and analyzed for the levels of blood urine nitrogen (BUN), serum creatine (CR), and hepatic enzymes (i.e., alanine aminotransferase (ALT) and aspartate aminotransferase (AST)). Heart function was determined by monitoring the changes in diastolic parameter—Tissue Velocity Imaging (TVI_V), E/A ratio, and the strain in cardia muscle (C_strain), left ventrical mass (LVMASS). Animals were sacrificed after the experiments were finished, and kidney biopsy samples were obtained.
# In this example, the effect of telbivudine on liver function was investigated.
# CKD rats [4] = test: Cardiac muscle strain measurement by heart ultrasound in CKD rats; type: in vivo, Sprague Dawley rats; details: vs control animals
# Description: SD rats (about 10 weeks old) scheduled to undergo 5/6 nephrectomy or sham surgery were anesthetized by Zoletil 50/Xylazine (6 mg/1.3 mg/Kg, i.p.). Then, the left kidney was exposed, and the upper and lower poles were tied with a suture line, followed by right nephrectomy. The peritoneum and skin were then sutured, and the animals were returned to their individual cages. For animals underwent sham surgery, the left kidney was exposed in similar manner, but was then placed back into the abdominal cavity without further treatment, peritoneum and skin were then sutured. Two weeks after sham or 5/6 nephrectomy surgery, the animals were subjected to a 24-hour urine collection and non-invasive tail blood pressure measurement every 4 weeks. […] Once the animal became unconscious, it was then connected to heart ultrasound machine (Vivid i, General Electric Company, US) and heart function paraments including changes in diastolic parameter-Tissue Velocity Imaging (TVI_V) and E/A ratio, the strain in cardia muscle (C_strain), and left ventrical mass ([…]) were respectively measured. […] Blood and urine samples were respectively collected on designated days and analyzed for the levels of blood urine nitrogen (BUN), serum creatine (CR), and hepatic enzymes (i.e., alanine aminotransferase (ALT) and aspartate aminotransferase (AST)). […]
# CKD rats [5] = test: Kidney fibrosis in kidney samples of CKD rats; type: in vivo, Sprague Dawley rats
# Description: Sprague Dawley rats (7 weeks old) were kept in pathogen-free environment under 12:12 light-dark cycle with food and water provided ad libitum, ambient temperature and relative humidity were respectively set at 24±2° C. and 50±20%. All procedures involving animal studies of the present disclosure comply with the “Guideline for the Care and Use of Laboratory Animals” issued by The Chinese-Taipei Society of Laboratory Animal Sciences. SD rats (about 10 weeks old) scheduled to undergo 5/6 nephrectomy or sham surgery were anesthetized by Zoletil 50/Xylazine (6 mg/1.3 mg/Kg, i.p.). Then, the left kidney was exposed, and the upper and lower poles were tied with a suture line, followed by right nephrectomy. The peritoneum and skin were then sutured, and the animals were returned to their individual cages. For animals underwent sham surgery, the left kidney was exposed in similar manner, but was then placed back into the abdominal cavity without further treatment, peritoneum and skin were then sutured. Two weeks after sham or 5/6 nephrectomy surgery, the animals were subjected to a 24-hour urine collection and non-invasive tail blood pressure measurement every 4 weeks. Four weeks after the surgery, rats underwent 5/6 nephrectomy or shame surgery were randomly assigned into two groups, i.e., the control and the telbivudine groups, in which the control group received saline treatment, and rats in the telbivudine group received telbivudine (10 mg/mL/Kg) treatment for 8 or 12 weeks. […] Blood and urine samples were respectively collected on designated days and analyzed for the levels of blood urine nitrogen (BUN), serum creatine (CR), and hepatic enzymes (i.e., alanine aminotransferase (ALT) and aspartate aminotransferase (AST)). Heart function was determined by monitoring the changes in diastolic parameter-Tissue Velocity Imaging ([…] ratio, and the strain in cardia muscle (C_strain), left ventrical mass ([…]). Animals were sacrificed after the experiments were finished, and kidney biopsy samples were obtained.
# CKD rats [6] = test: Heart fibrosis in CKD rats; type: in vivo, Sprague Dawley rats; details: heart tissue of CKD rats, telbivudine-treated vs untreated (FIG. 5)
# Description: as §3, §2
# CKD rats [7] = test: Blood urine nitrogen (BUN) and serum creatine (CR) levels in 5/6 nephrectomy CKD rats; type: in vivo, Sprague Dawley rats; details: 5/6 nephrectomy rats
# Description: Sprague Dawley rats (7 weeks old) were kept in pathogen-free environment under 12:12 light-dark cycle with food and water provided ad libitum, ambient temperature and relative humidity were respectively set at 24±2° C. and 50±20%. All procedures involving animal studies of the present disclosure comply with the “Guideline for the Care and Use of Laboratory Animals” issued by The Chinese-Taipei Society of Laboratory Animal Sciences. SD rats (about 10 weeks old) scheduled to undergo 5/6 nephrectomy or sham surgery were anesthetized by Zoletil 50/Xylazine (6 mg/1.3 mg/Kg, i.p.). Then, the left kidney was exposed, and the upper and lower poles were tied with a suture line, followed by right nephrectomy. The peritoneum and skin were then sutured, and the animals were returned to their individual cages. For animals underwent sham surgery, the left kidney was exposed in similar manner, but was then placed back into the abdominal cavity without further treatment, peritoneum and skin were then sutured. Two weeks after sham or 5/6 nephrectomy surgery, the animals were subjected to a 24-hour urine collection and non-invasive tail blood pressure measurement every 4 weeks. Four weeks after the surgery, rats underwent 5/6 nephrectomy or shame surgery were randomly assigned into two groups, i.e., the control and the telbivudine groups, in which the control group received saline treatment, and rats in the telbivudine group received telbivudine (10 mg/mL/Kg) treatment for 8 or 12 weeks. Animals were then sacrificed, and kidney and heart biopsy samples were obtained. In this example, to evaluate the therapeutic function of telbivudine, animals were first subject to 5/6 nephrectomy to induce in vivo kidney failure before being treated with telbivudine. 5/6 nephrectomy is a procedure in which one kidney of a test animal is removed and 2/3 of the remaining kidney is ablated, thereby mimics the progressive renal failure after loss of renal mass in humans. Briefly, approximately 50% of the remaining kidney of the rat was removed by polar excision 1-2 weeks after uni-nephrectomy. Then, the animals were randomly assigned to two groups, the telbivudine group and the control group. […] Blood and urine samples were respectively collected on designated days and analyzed for the levels of blood urine nitrogen (BUN), serum creatine (CR), and hepatic enzymes (i.e., alanine aminotransferase (ALT) and aspartate aminotransferase (AST)). Heart function was determined by monitoring the changes in diastolic parameter-Tissue Velocity Imaging ([…] ratio, and the strain in cardia muscle (C_strain), left ventrical mass ([…]). Animals were sacrificed after the experiments were finished, and kidney biopsy samples were obtained.
# [8] = test system: IL-6, TGF-β, TIMP1 and COL-1-A1 in kidney tissue of CKD rats; test: Western blot of inflammatory proteins in kidney tissue of CKD rats; type: in vivo, Sprague Dawley rats
# Description: as §1
# For protein identification, 30 μg nuclear extracted protein was loaded in each lane of the SDS-PAGE gel (8%) and separated by electrophoresis. The separated proteins were then electro-transferred to polyvinylidene fluoride (PVDF) membranes (GE Healthcare Bio-Sciences, Little Chalfont, UK), and blocked with 5% fat-free skim milk in TRIS-buffered saline containing 0.01% Tween-20 for 60 min at room temperature. The membrane was then incubated with rabbit polyclonalanti-IL-6, TGF-β, TIMP-1 and COL1-1 (diluted 1:1000 in PBS/5% skim milk; Novus. Biologicals) antibodies overnight at 4, respectively. HRP conjugated anti-rabbit IgG (Promega) was then used as secondary antibody. Immunoreactive protein was visualized by the chemiluminescence protocol (ECL, GE HealthcareBio-Sciences). Anti-actin rabbit polyclonal antibody (1:1000; Sigma-Aldrich) was used for calibration.
# as §4, with “Rats in the telbivudine group were orally fed with telbivudine (at a dosage of 100 mg/Kg) for 4, 8 or 12 weeks, while the animals in the control group were given just the water.” left out, “Animals were sacrificed after the experiments were finished, and kidney biopsy samples were obtained.” left out
# CKD rats [9] = test: Uremic toxins (indoxyl sulfate, P-cresyl sulfate) in serum of CKD rats; type: in vivo, Sprague Dawley rats; details: serum collected from CKD rats
# Description: as §1, §4
# Indoxyl sulfate (IS) and P-cresyl sulfate (PCS) are uremic toxins that accumulate in the serum of CKD patients, and are known factors for causing heart problems in the CKD subjects.
# [10] = test system: IL-6 and COL-1-A1 in heart tissue of CKD rats; test: Western blot of IL-6 and COL-1-A1 in heart tissue of CKD rats; type: in vivo, Sprague Dawley rats
# Description: as §3, §2
# [11] = telbivudine orally 100 mg/Kg for 8 weeks, vs untreated CKD
# [12] = telbivudine orally 100 mg/Kg for 12 weeks
smiles,measurement,setting,value
Cc1cn([C@@H]2C[C@@H](O)[C@H](CO)O2)c(=O)[nH]c1=O [telbivudine],mRNA level of COL-1-A1,[1],reduced
same,mRNA level of IL-6,[1],reduced
same,mRNA level of TGF-β,[1],reduced
same,mRNA level of TIMP1,[1],reduced
same,mRNA level of COL-1-A1,[2],markedly reduced
same,mRNA level of IL-6,[2],markedly reduced
same,level of alanine aminotransferase (ALT),CKD rats [3],remained relatively the same
same,level of aspartate aminotransferase (AST),CKD rats [3],remained relatively the same
same,toxic effects toward liver function,CKD rats [3],does not possess any toxic effects
same,C-strain values (strain in cardia muscle),CKD rats [4]; CKD animals treated with telbivudine for 8 weeks,significant improvement
same,C-strain values (strain in cardia muscle),CKD rats [4]; CKD animals treated with telbivudine for 12 weeks,significant improvement
same,decrease of extent of kidney fibrosis,CKD rats [5]; telbivudine treatment for 8 weeks (FIG. 2 panel D),about 62.4%
same,decrease of extent of kidney fibrosis,CKD rats [5]; telbivudine treatment for 12 weeks (FIG. 2 panel D),~79.2%
same,extent of kidney fibrosis (photographs),CKD rats [5]; telbivudine-treated vs untreated (FIG. 2 panel B vs C),significantly reduced
same,extent of fibrotic tissues in heart,CKD rats [6],markedly reduced
same,level of BUN (blood urine nitrogen),CKD rats [7]; [11],significant reduction
same,level of CR (serum creatine),CKD rats [7]; [11],significant reduction
same,level of BUN (blood urine nitrogen),CKD rats [7]; [12],most significant
same,level of CR (serum creatine),CKD rats [7]; [12],most significant
same,protein level of COL-1-A1,[8],reduced
same,protein level of IL-6,[8],reduced
same,protein level of TGF-β,[8],reduced
same,protein level of TIMP1,[8],reduced
same,free level of Indoxyl sulfate (IS),CKD rats [9],effectively reduced
same,free level of P-cresyl sulfate (PCS),CKD rats [9],effectively reduced
same,total level of Indoxyl sulfate (IS),CKD rats [9],effectively reduced
same,total level of P-cresyl sulfate (PCS),CKD rats [9],effectively reduced
same,protein level of COL-1-A1,[10],markedly reduced
same,protein level of IL-6,[10],markedly reduced
